# Results taken from patent US5281710A, “Dynemicin analogs: synthesis, methods of preparation and use” (The Scripps Research Institute, priority 1992, dated 1994).
# How the values were obtained:
# [1] = tested on: Ovcar-3 ovarian carcinoma cells; test: Sulforhodamine B cytotoxicity, Ovcar-3; type: cell-based; conditions: Homo sapiens, OVCAR-3, Ovcar-3; read-out: IC50
# Protocol: (§1) In addition to the screening already discussed, several of the before-described compounds and chimeras were screened against several or all of a panel of ten to twenty-five cancerous cell lines as target cells and seven "normal" cell preparations. This screening utilized a sulforhodamine B cytotoxidity assay as discussed below.
# (§2) IC50 values; i.e., the concentration of Compound required to kill one-half of the treated cells, were then calculated.
# U-251 MG glioma cells = test: Sulforhodamine B cytotoxicity, U-251; type: cell-based; conditions: Homo sapiens
# Protocol: as §1, §2
# SK-Mel-28 melanoma cells = test: Sulforhodamine B cytotoxicity, SK-Mel-28; type: cell-based; conditions: Homo sapiens, SK-MEL-28, SK-Mel-28; read-out: IC50
# Protocol: as §1, §2
# [2] = tested on: MOLT-4 (Leukemia) cell line; test: cells; type: cell-based
# In short: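 Screening panel: cancerous cell lines (ten to twenty-five) alongside seven "normal" preparations. Sulforhodamine B used to quantify cell kill; IC50 calculated.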
# Chemical stability = type: physicochemical
# H-358 lung cells = test: Sulforhodamine B cytotoxicity, H-358; type: cell-based; conditions: Homo sapiens, NCI-H358
# Protocol: as §1, §2
# [3] = Sulforhodamine B cytotoxicity, HMEC; type: cell-based, human; conditions: human, read-out: cell viability
# Protocol: as §1, §2
# HMEC Human mammary epithelial cells
# [4] = tested on: DNA in Molt-4 leukemia cells; test: DNA strand breakage in Molt-4 cells (ethidium bromide fluorimetry); type: cell-based
# Protocol: In another study, Molt-4 leukemia cells were treated with ethidium bromide, which led to uptake by DNA through intercalcation and consequent fluorescence. Exposure of those cells to Compound 153 (10 μM at 10^7 cells/ml) led to rapid DNA strand breakage as determined by fluorimetry, resulting in 95 percent destruction after four hours at 37° C. […] These observations implicate DNA strand cleavage as the direct cause of cell destruction in these studies.
# [5] = tested on: L-1210 mouse lymphoma cells; test: Sulforhodamine B cytotoxicity, L-1210; type: cell-based; conditions: L1210
# Protocol: as §1, §2
# [6] = tested on: HT-29 colon carcinoma cells; test: Sulforhodamine B cytotoxicity, HT-29; type: cell-based; conditions: Homo sapiens, HT-29, colon carcinoma H-29 (Table 4) / HT-29 (Table 5); read-out: IC50
# Protocol: as §1, §2
# M-21 melanoma cells [7] = test: Inhibition of [3H]thymidine uptake (DNA synthesis) in M-21 cells; type: cell-based, human; conditions: 72 hours incubation
# Protocol: (§3) These determinations were made by standard tissue growth procedures using RPMI tissue culture medium supplemented with 10 percent fetal bovine serum plated at 10^4 cells in 100 μl of medium in 96-well tissue culture plates. The cells were permitted to adhere for 24 hours, and the dilutions of Compound 153 were added in 10 μl volumes and incubated for 72 hours at 37° C. in a humidified atmosphere containing five percent CO2. The plates were then washed three times with tissue culture medium and again incubated for 24 hours, as above. Each well received 1 μCi of ^3 H-labeled substrate, and after an additional 16 hours of incubation, cells were collected on glass fiber filters with a Skatron cell harvester. Finally, the filters were placed in Ecolume scintillation cocktail (ICN, Irvine, Calif.), and radioactivity was measured with a Beckeman scintillation counter. Incorporation of the ^3 H label was calculated as a percentage of untreated controls.
# [8] = tested on: P-388 mouse lymphoma cells; test: Sulforhodamine B cytotoxicity, P-388; type: cell-based; conditions: Mus musculus, P388; P-388; read-out: IC50
# Protocol: as §1, §2
# [9] = tested on: EMT6 mammary tumor in Balb/c BYJ mice; test: In vivo EMT6 mammary tumor in Balb/c BYJ mice; set-up: species or system mouse; conditions: 10 mg/kg on days 1, 5 and 9
# Protocol: The data of FIG. 10 illustrate a further in vivo study using compound 153. Here, groups of 6-10 week old, female Balb/c BYJ mice (obtained from The Scripps Research Institute breeding colony, La Jolla, Calif.) (8 per group) were inoculated with 5×10^5 cells of the EMT6 tumor cell line, a mammary tumor. The mice were then treated with normal saline (control) or normal saline containing 10 mg/kg of Compound 153 (study) on days 1, 5 and 9 after the inoculation.
# φX174 Form I DNA = test: φX174 supercoiled DNA cleavage, agarose gel; type: biochemical
# Water solubility = type: physicochemical
# [10] = tested on: tumor cells and "normal" cells; test: Relative activity against tumor cells and normal cells; type: cell-based
# Description: In contrast, 100 percent of normal human mammary epithelial cells (HMEC) were viable at the same concentration.
# M-14 melanoma cells = test: Sulforhodamine B cytotoxicity, M-14; type: cell-based; conditions: Homo sapiens, M14
# Protocol: as §1, §2
# UCLA M-14 Dr. R. Reisfeld of The Scripps Research
# U-87 UG astocytoma cells = test: Sulforhodamine B cytotoxicity, U-87; type: cell-based
# Protocol: as §1, §2
# M-21 melanoma cells [11] = test: Inhibition of [3H]leucine uptake (protein synthesis) in M-21 cells; type: cell-based, human; conditions: 72 hours incubation
# Protocol: as §3
# [12] = tested on: SK-Mel-28, M-14, M-21, Capan-1, Ovcar-3, Ovcar-4, UCLA-P-3, U-87, U-251 and Molt-4 cell lines; type: cell-based; conditions: ten tumor cell lines
# Protocol: In other studies, IC50 values were determined for the anti-tumor agents dynemicin A, calicheamicin γ1^I, taxol, vinblastine/vincristine, doxorubicin, actinomycin D and bleomycin sulfate against the SK-Mel-28, M-14, M-21, Capan-1, Ovcar-3, Ovcar-4, UCLA-P-3, U-87, U-251 and Molt-4 cell lines.
smiles,measurement,setting,value
O=C(OCCS(=O)(=O)c1ccccc1)N1c2ccc(OCCO)cc2C23OC24CCCC3C#C/C=C\C#CC14 (centres unmarked) [Compound 153],IC50,[1],780 nM
same,IC50,U-251 MG glioma cells,390 nM
same,IC50,SK-Mel-28 melanoma cells,3100 nM
same,viability at 0.01 µM,"[2]; Homo sapiens, 72 h, 10^-8 M, Molt-4 tumor cells",20%
same,relative potency (qualitative),[2]; Molt-4,highest potency amongst all of the agents assayed against the Molt-4 leukemia cell line
same,chemical stability,Chemical stability,decompose cleanly to form phenyl vinyl sulfone and the corresponding free amine enediyne Compound 153a
same,time remaining intact,"Chemical stability; pH 7.0 phosphate buffer (100 mM), 37° C.",≥ 1.5 h
same,IC50,H-358 lung cells,200 nM
same,viability at 72 h,[3]; 10^-6 to 10^-7 M,100%
same,"viability at 72 h, 0.01 µM",[3]; 10^-8 M,100%
same,DNA strand breakage (destruction),"[4]; 10 μM at 10^7 cells/ml, four hours at 37° C.",95%
same,delay of cell death relative to DNA strand breakage,"[4]; 10 μM, Molt-4 cells",two
same,IC50,[5],1.3 nM
same,IC50,[6],1600 nM
same,inhibition of [3H]thymidine uptake (DNA synthesis),M-21 melanoma cells [7],severely impair the ability of M-21 melanoma cells to synthesize DNA
same,IC50,[8],4.6 nM
same,tumor growth of treated tumors,[9],"much slower, and almost linear"
same,tumor volume vs control,[9]; day 8,"slight difference in the average volume of the tumors, with the study group having a lower tumor burden"
same,control group's average tumor volume relative to study group,[9]; day 20,about seven
same,DNA cleavage,"φX174 Form I DNA; 1.0 mM, 24 hours, acidic pH",no DNA cleavage activity
same,DNA cleavage,"φX174 Form I DNA; 1.0 mM, 24 hours, pH 7.0 and higher",some DNA cleavage activity
same,DNA cleavage,"φX174 Form I DNA; pH 8.5, 24 or 48 hours, 37° C.",strong DNA cleavage activity
same,water solubility,Water solubility,increased solubility of Compound 153 in water compared to the other enediyne compounds
same,selectivity between normal and cancer cells (qualitative),[10],"relative selectivity for tumor cell lines as opposed to normal, untransformed cells"
same,times more active against tumor cells than against normal cells,[10]; except for the three melanoma cell lines,10^1 -10^8 times
same,IC50,M-14 melanoma cells,1600 nM
same,IC50,U-87 UG astocytoma cells,780 nM
same,inhibition of [3H]leucine uptake (protein synthesis),M-21 melanoma cells [11],severely impair
same,relative potency among agents across cell lines,[12],comparable to most of the other agents against the other cell lines
